30 compounds from US9000022B2 (Exelixis Patent Company LLC, priority 2005, dated 2015) can be followed below.

One may read the EC50 as the concentration at which the effect is half-maximal.

For the first experiment, the system named is LXRα and/or LXRβ. Kind of experiment: Co-transfection assay (LXRE luciferase reporter, CV-1 cells). The format is cell-based, human. The following applies: read-out: activity (IC50 or EC50 for LXR), tested as described in Example 33, isoform not specified. The method in brief:
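Luciferase signal measures LXR-RXR transcriptional activation in transiently transfected CV-1 cells carrying human LXRα or LXRβ, RXRα and a single-copy LXRE reporter. Cells were exposed to compound for 20 h at 37 °C with at most 1% DMSO, using 10 μM final for screening. Potency was derived from 4-parameter fits of 8-point, half-log dose curves averaged over ≥3 runs, and efficacy was expressed as % of a reference agonist.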
Take `CCS(=O)(=O)c1cccc(-c2ccc(-n3cc(C(C)(C)O)nc3Cc3cccc(Cl)c3Cl)c(Cl)c2)c1` [Example 26, 2-(1-(3-chloro-3′-(ethyl-sulfonyl)biphenyl-4-yl)-2-(2,3-dichlorobenzyl)-1H-imidazol-4-yl)propan-2-ol]: the half-maximal effective concentration (EC50) was below 1 µM.
Still for that read-out and setting: the figure for `CC(C)(O)c1cn(-c2ccc(-c3cccc(S(C)(=O)=O)c3)cc2Cl)c(Cc2cccc(Cl)c2Cl)n1` [Example 25, 2-(1-(3-chloro-3′-(methyl-sulfonyl)biphenyl-4-yl)-2-(2,3-dichlorobenzyl)-1H-imidazol-4-yl)propan-2-ol] is below 1 µM.

The experiment is the same for the next values; noted with them: tested as described in Example 33; IC50 or EC50 for LXRα and/or LXRβ, isoform not specified; read-out: activity (IC50 or EC50 for LXR).
Take `CC(C)(O)c1cn(-c2cccc(-c3cccc(S(C)(=O)=O)c3)c2)c(-c2ccccc2C(F)(F)F)n1` [Example 201, 2-{1-[3′-(methylsulfonyl)biphenyl-3-yl]-2-[2-(trifluoromethyl)phenyl]-1H-imidazol-4-yl}propan-2-ol]: the IC50 or EC50 (potency, activation or inhibition) is below 1 µM.
The same measure, in the same setting: as for `Cc1c(Cl)cccc1-c1nc(C(C)(C)O)cn1-c1ccc(-c2cccc(S(C)(=O)=O)c2)cc1F` [Example 118, 2-(2-(3-chloro-2-methylphenyl)-1-(3-fluoro-3′-(methylsulfonyl)biphenyl-4-yl)-1H-imidazol-4-yl)propan-2-ol], the figure is below 1 µM; as for `CS(=O)(=O)c1cccc(-c2ccc(-n3cc(C(=O)NCCO)nc3-c3c(Cl)cccc3Cl)cc2)c1` [Example 84, 2-(2,6-dichlorophenyl)-N-(2-hydroxyethyl)-1-(3′-(methyl-sulfonyl)biphenyl-4-yl)-1H-imidazole-4-carboxamide], below 1 µM; as for `NS(=O)(=O)c1cccc(-c2ccc(-n3cc(C(F)(F)F)nc3-c3ccccc3Cl)cc2)c1` [Example 360, 4′-[2-(2-chlorophenyl)-4-(trifluoro-methyl)-1H-imidazol-1-yl]biphenyl-3-sulfonamide], below 1 µM.
Take `COC(=O)c1cccc(-c2ccc(-n3cc(C(C)(C)O)nc3-c3ccccc3Cl)cc2)c1` [Example 390, methyl 4′-[2-(2-chlorophenyl)-4-(1-hydroxy-1-methylethyl)-1H-imidazol-1-yl]biphenyl-3-carboxylate]: the IC50 or EC50 (potency, activation or inhibition) was 1 to 10 µM.
As for `CCOC(=O)c1cn(-c2ccc(-c3cccc(S(C)(=O)=O)c3)cc2)c(-c2ccccc2)n1` [Example 376, ethyl 1-[3′-(methylsulfonyl)biphenyl-4-yl]-2-phenyl-1H-imidazole-4-carboxylate], the IC50 or EC50 (potency, activation or inhibition) is below 1 µM.
Same read-out and setting: as for `CC(C)(O)c1cn(-c2ccc(-c3cccc(S(C)(=O)=O)c3)cn2)c(-c2ccccc2C(F)(F)F)n1` [Example 420, 2-(1-{5-[3-(methyl-sulfonyl)phenyl]pyridin-2-yl}-2-[2-(trifluoromethyl)phenyl]-1H-imidazol-4-yl)propan-2-ol], the figure is 1 to 10 µM; as for `CC(C)(O)c1nc(-c2ccccc2C(F)(F)F)n(-c2ccc(-c3cccc(S(C)(=O)=O)c3)cc2)c1F` [Example 406, 2-{5-fluoro-1-[3′-(methyl-sulfonyl)biphenyl-4-yl]-2-[2-(trifluoro-methyl)phenyl]-1H-imidazol-4-yl}propan-2-ol], below 1 µM.
Consider `CCS(=O)(=O)c1cccc(-c2ccc(-c3nc(C(C)(C)O)cn3-c3c(C)cccc3C(C)C)c(C)c2)c1` [Example 60, 2-(2-(3′-(ethylsulfonyl)-3-methyl-biphenyl-4-yl)-1-(2-isopropyl-6-methylphenyl)-1H-imidazol-4-yl)propan-2-ol], for which the IC50 or EC50 (potency, activation or inhibition) is below 1 µM.
The same measure, in the same setting: as for `COc1ncccc1-c1ccc(-n2cc(C(C)(C)O)nc2-c2ccccc2C(F)(F)F)cc1` [Example 274, 2-(1-{4-[2-(methyloxy)pyridin-3-yl]phenyl}-2-[2-(trifluoro-methyl)phenyl]-1H-imidazol-4-yl)propan-2-ol], the figure is 1 to 10 µM; as for `CC(C)(O)c1cn(-c2ccc(-c3cccc(S(C)(=O)=O)c3)cc2Cl)c(-c2ccccc2C(F)(F)F)n1` [Example 135, 2-(1-(3-chloro-3′-(methyl-sulfonyl)biphenyl-4-yl)-2-(2-(trifluoromethyl)phenyl)-1H-imidazol-4-yl)propan-2-ol], below 1 µM; as for `CC(C)(O)c1cn(-c2ccc(-c3ccc(CO)c(S(C)(=O)=O)c3)cc2F)c(-c2ccccc2C(F)(F)F)n1` [Example 121], below 1 µM.
As to `CC(C)(O)c1cn(-c2ccc(-c3cc(C(F)(F)F)ccc3F)cc2)c(-c2ccccc2C(F)(F)F)n1` [Example 220, 2-{1-[2′-fluoro-5′-(trifluoro-methyl)biphenyl-4-yl]-2-[2-(trifluoro-methyl)phenyl]-1H-imidazol-4-yl}propan-2-ol], the IC50 or EC50 (potency, activation or inhibition) is below 1 µM.
On the same count and under the same terms, as for `CCS(=O)(=O)c1cccc(-c2ccc(-n3cc(C(C)(C)O)nc3-c3c(F)cccc3F)c(Cl)c2)c1` [Example 158, 2-(1-(3-chloro-3′-(ethyl-sulfonyl)biphenyl-4-yl)-2-(2,6-difluorophenyl)-1H-imidazol-4-yl)propan-2-ol], the figure is below 1 µM.
Take `CC(C)(O)c1cn(-c2ccc(-c3cccc(S(C)(=O)=O)c3)cc2)c(-c2cccc(Cl)c2Cl)n1` [Example 382, 2-{2-(2,3-dichlorophenyl)-1-[3′-(methylsulfonyl)biphenyl-4-yl]-1H-imidazol-4-yl}propan-2-ol]: the IC50 or EC50 (potency, activation or inhibition) is below 1 µM.
As for `CCS(=O)(=O)c1cccc(-c2ccc(-n3cc(C(C)(C)O)nc3-c3cccc(Cl)c3Cl)c(F)c2)c1` [Example 114, 2-(2-(2,3-dichlorophenyl)-1-(3′-(ethylsulfonyl)-3-fluorobiphenyl-4-yl)-1H-imidazol-4-yl)propan-2-ol], the IC50 or EC50 (potency, activation or inhibition) was below 1 µM.
On the same count and under the same terms, as for `CC(C)(O)c1cn(-c2ccc(-c3cccc(S(C)(=O)=O)c3)cc2)c(-c2ccc(F)cc2)n1` [Example 385, 2-{2-(4-fluorophenyl)-1-[3′-(methylsulfonyl)biphenyl-4-yl]-1H-imidazol-4-yl}propan-2-ol], the figure is 1 to 10 µM; as for `CC(C)(O)c1cn(-c2ccc(Br)cc2)c(-c2ccccc2C(F)(F)F)n1` [Example 374, 2-{1-(4-bromophenyl)-2-[2-(trifluoromethyl)phenyl]-1H-imidazol-4-yl}propan-2-ol], 1 to 10 µM; as for `CCC(O)(CC)c1cn(-c2ccc(-c3cccc(S(=O)(=O)CC)c3)cc2)c(-c2cccc(Cl)c2Cl)n1` [Example 73, 3-(2-(2,3-dichlorophenyl)-1-(3′-(ethylsulfonyl)biphenyl-4-yl)-1H-imidazol-4-yl)pentan-3-ol], below 1 µM.
With `CC(C)(O)c1cn(-c2ccc(-c3ccc(CO)c(S(C)(=O)=O)c3)cc2)c(-c2cccc(Cl)c2Cl)n1` [Example 98, 2-(2-(2,3-dichlorophenyl)-1-(4′-(hydroxymethyl)-3′-(methyl-sulfonyl)biphenyl-4-yl)-1H-imidazol-4-yl)propan-2-ol], the IC50 or EC50 (potency, activation or inhibition) was below 1 µM.
`CC(C)(O)c1cn(-c2ccc(-c3cc(S(C)(=O)=O)ccc3Cl)cc2Cl)c(-c2c(Cl)cccc2Cl)n1` [Example 467, 2-(1-(2′,3-dichloro-5′-(methyl-sulfonyl)biphenyl-4-yl)-2-(2,6-dichlorophenyl)-1H-imidazol-4-yl)propan-2-ol]: the IC50 or EC50 (potency, activation or inhibition) was below 1 µM.
Still for that read-out and setting: as for `CCS(=O)(=O)c1cccc(-c2ccc(-n3cc(C(C)(C)O)nc3-c3cccc(F)c3Cl)c(Cl)c2)c1` [Example 152, 2-(1-(3-chloro-3′-(ethyl-sulfonyl)biphenyl-4-yl)-2-(2-chloro-3-fluorophenyl)-1H-imidazol-4-yl)propan-2-ol], the figure is below 1 µM; as for `CS(=O)(=O)c1cccc(-c2ccc(-n3cc(C(=O)NCC(F)(F)F)nc3-c3ccccc3Cl)cc2)c1` [Example 397, 2-(2-chlorophenyl)-1-[3′-(methyl-sulfonyl)biphenyl-4-yl]-N-(2,2,2-trifluoroethyl)-1H-imidazole-4-carboxamide], below 1 µM; as for `CC(C)(O)c1cn(-c2ccc(-c3cccc(S(C)(=O)=O)c3)cc2Cl)c(-c2c(F)cccc2F)n1` [Example 157, 2-(1-(3-chloro-3′-(methyl-sulfonyl)biphenyl-4-yl)-2-(2,6-difluorophenyl)-1H-imidazol-4-yl)propan-2-ol], below 1 µM.
Take `CC(C)(O)c1nc(-c2ccc(-c3cccc(S(C)(=O)=O)c3)cc2Cl)n(-c2c(Cl)cccc2Cl)c1Cl` [Example 445, 2-(5-chloro-2-(3-chloro-3′-(methylsulfonyl)biphenyl-4-yl)-1-(2,6-dichlorophenyl)-1H-imidazol-4-yl)propan-2-ol]: the IC50 or EC50 (potency, activation or inhibition) is below 1 µM.
Still for that read-out and setting: as for `CCS(=O)(=O)c1cccc(-c2ccc(-n3cc(C(C)(C)O)nc3Cc3cccc(Cl)c3Cl)c(F)c2)c1` [Example 450, 2-(2-(2,3-dichlorobenzyl)-1-(3′-(ethylsulfonyl)-3-fluorobiphenyl-4-yl)-1H-imidazol-4-yl)propan-2-ol], the figure is below 1 µM; as for `CC(C)(O)c1cn(-c2ccc(-c3cccc(S(C)(=O)=O)c3)cc2Cl)c(-c2c(Cl)cccc2Cl)n1` [Example 142, 2-(1-(3-chloro-3′-(methyl-sulfonyl)biphenyl-4-yl)-2-(2,6-dichlorophenyl)-1H-imidazol-4-yl)propan-2-ol], below 1 µM.
Still for that read-out and setting: the figure for `CC(C)(O)c1cn(-c2ccc(-c3ccc(S(C)(=O)=O)cc3)cc2)c(-c2ccccc2C(F)(F)F)n1` [Example 199, 2-{1-[4′-(methylsulfonyl)biphenyl-4-yl]-2-[2-(trifluoromethyl)phenyl]-1H-imidazol-4-yl}propan-2-ol] is 1 to 10 µM.
